Test results from patent US20050215531A1, “Use of edg receptor binding agents in cancer” (priority 2002, published 2005).

Legend:
Type in all cases: cell-based, human
E-Selectin = E-Selectin expression in endothelial cells
p38 kinase = experiment: Western blot, p38 kinase activation in HUVEC
Procedure: (§1) Human umbilical vein endothelial cells (HUVEC) are cultured at 37° C. and 5% CO2 in medium M199 supplemented with 20% SCS (HyClone, Logan, Utah), 1 U/ml heparin, 50 μg/ml ECGS, 2 mM glutamine, 100 U/ml penicillin and 0.1 mg/ml streptomycin. Cells are used for experiments up to passage number 5. Short-starved HUVEC are obtained by starving with 1% SCS-containing M199 for 5 h. Recombinant human VEGF165 is obtained from PromoCell (Heidelberg, Germany). Phospho-specific ERK½, p3B kinase polyclonal antibodies, nonphospho ERK½ antibodies and LumiGLO chemiluminescent reagent are from New England BioLabs (Beverly, Mass.), polyclonal IKB antibodies from Santa Cruz Biotechnology (Santa Cruz, Calif.). Peroxidase-conjugated donkey anti-rabbit immunoglobulin G (IgG) and sheep anti-mouse IgG are purchased from Amersham LIFE SCIENCE (Amersham Place, England). lmmobilon-P transfer membranes are products of Millipore (Bedford, Mass.). S is obtained from Sigma Chemical Co.; S1P is from Biomol. Compound A-phosphate stock solution is prepared by the following protocol. Compound A-phosphate is dissolved in methanol tracing with concentrated HCl (0.5 mg Compound A-phosphate in 500 μl of methanol plus 2 μl of HCl). […]

IκB = experiment: Western blot reprobed with anti-IκB antibodies (NFκB-dependent program); conditions: endothelial cells
Procedure: as §1

HUVEC = experiment: In vitro angiogenesis (tube formation) assay on Matrigel
Procedure: (§2) Human umbilical vein endothelial cells (HUVEC) are cultured at 37° C. and 5% CO2 in medium M199 supplemented with 20% SCS (HyClone, Logan, Utah), 1 U/ml heparin, 50 μg/ml ECGS, 2 mM glutamine, 100 U/ml penicillin and 0.1 mg/ml streptomycin. Cells are used for experiments up to passage number 5. Short-starved HUVEC are obtained by starving with 1% SCS-containing M199 for 5 h. Recombinant human VEGF165 is obtained from PromoCell (Heidelberg, Germany). Phospho-specific ERK½, p3B kinase polyclonal antibodies, nonphospho ERK½ antibodies and LumiGLO chemiluminescent reagent are from New England BioLabs (Beverly, Mass.), polyclonal IKB antibodies from Santa Cruz Biotechnology (Santa Cruz, Calif.). Peroxidase-conjugated donkey anti-rabbit immunoglobulin G (IgG) and sheep anti-mouse IgG are purchased from Amersham LIFE SCIENCE (Amersham Place, England). lmmobilon-P transfer membranes are products of Millipore (Bedford, Mass.). S is obtained from Sigma Chemical Co.; S1P is from Biomol. Compound A-phosphate stock solution is prepared by the following protocol. Compound A-phosphate is dissolved in methanol tracing with concentrated HCl (0.5 mg Compound A-phosphate in 500 μl of methanol plus 2 μl of HCl). Solvent from the resulting solution is evaporated under vacuum and the residue obtained is redissolved (variant 1) in 0.1% of defatted BSA solution in sterile deionized water (500 μl) or (variant 2) in 0.5% Triton X-100 in deionized water. The resulting stock solutions (2.5 mM) are sonicated and stored at 4° C.
Morphogenesis of endothelial cells into capillary-like structures on Growth Factor Reduced Matrigel Matrix (BD Bioscience) is performed according to the manufacture procedure. Briefly, HUVEC are trypsinized, resuspended in serum-free Ml 99 medium containing soybean trypsin inhibitor (1 mg/ml, Sigma). After centrifugation cells are resuspended in serum-free medium at a density 0.5×10^5 cells/ml, and cell suspension is seeded in 96-well cell culture plates (Costar, Corning Incorporated) precoated with 50 μl of Matrigel in the absence or presence of various stimuli: VEGF at 1.5 nM, S1P at 0.1-2 μM, S at 0.5-2 μM, Compound A at 0.5-2 μM, and Compound A-phosphate at 0.1-2 μM. Eight hours later, cells on Matrigel are fixed with 3% formaldehyde in PBS and kept at 4° C. Results are quantitated from images made with a Nikon Diaphot microscope equipped with a cooled CCD camera (Kappa GmbH, Gleichen, Germany) by direct counting of branching points on two microscopic fields from each well done in duplicates.
The effect of Compound A and Compound A-phosphate on morphogenic differentiation of endothelial cells is determined using an in vitro angiogenesis assay on Matrigel. Endothelial cell morphogenesis is a complex process that requires cell-extracellular matrix interactions, followed by matrix remodelling, stimulated migration, cell-cell interactions, and perivascular proteolysis. […] This may be interpreted as a possible involvement of EDG-1 (S1P1) receptor-mediated signaling events in Compound A-phosphate-stimulated bioresponses (see e.g. FIG. 3). […] Importantly, high concentrations of S and Compound A (2-5 μM) inhibited VEGF-triggered tube formation.

tissue factor = experiment: Clotting assay, tissue factor activity on HUVEC
Procedure: as §2
Cells are seeded in 6-well plates at 80-90% confluency and grown overnight. Cells are scraped from the plates and analyzed for tissue factor activity according to the method as described in Clauss, M., J. Biol. Chem. 271,17629-17634 (1996), Mechtcheriakova, D., Blood 93,3811-3823 (1999). Briefly, after induction for 4 hours with VEGF (1.5 nM), TNF-α (100 U/ml), S (0.5-2 μM), S1P (0.5-2 μM), Compound A (0.5-2 μM), and Compound A-phosphate (0.5-2 μM), cells are washed twice and then scraped in 1 ml clotting buffer (12 mM sodium acetate, 7 mM diethylbarbitate and 130 mM sodium chloride; pH 7.4). 50 μl of resuspended cells are mixed with 50 μl of citrated plasma, and clotting times are determined after recalcfication with 50 μl of 20 mM CaCl2 solution at 37° C. TF-equivalents are determined by using a standard curve obtained from rabbit brain thromboplastin.
An important characteristic feature of both classical inflammatory stimulus TNF-α and the main angiogenic growth factor VEGF on endothellal cells is their potency to upregulate tissue factor. Compound A, Compound A-phosphate, S or S1P are tested whether they also do induce tissue factor on HUVEC. […] The data obtained together indicate that Compound A, Compound A-phosphate, S and S1P mechanistically work distinctly to anglogenic VEGF and inflammatory TNF-α.

JNK½ = experiment: Western blot, JNK½ activation in HUVEC
Procedure: as §1

ERK½ MAP kinases = experiment: Western blot, activation of ERK½ MAP kinases in HUVEC; conditions: HUVEC
Procedure: as §2
After various treatments, the cells are washed twice with cold PBS, lysed in 100 μl of Laemmli buffer, scraped and heated for 5 min at 95° C. Total cell lysates are separated by SDS-PAGE and transferred to Immobilon-P membrane. The membrane is blocked for 30 minutes with PBS containing 0.1% Tween-20 and 3% skim milk and incubated for 1 hour at RT with a primary antibody diluted in blocking buffer. The membrane obtained is washed three times for 5 minutes with PBS containing 0.1% Tween-20 and incubated with peroxidase-conjugated secondary antibody for 1 hour at RT. After a washing step, the membrane is incubated for 1 minute with ECL reagent and exposed to film as required. For reprobing with another antibody, the membrane is washed twice in PBS, stripped for 30 min at 55° C. with stripping buffer (62.5 mM Tris-HCL, pH 6.8, 2% SDS, 100 mM 2-mercaptoethanol) and washed three times for 5 minutes with PBS at RT. The membrane is stored wet wrapped in SaranWrap at 4° C. after each immunodetection.
Signal transduction via MAP idnases plays a key role in a variety of endothelial cell functions. Treatment of HUVEC with Compound A-phosphate at 0.5 μM may result in transient activation of ERK½ with a peak of phosphorylation/activation at 10 minutes and returning to baseline by 20 minutes (see e.g. FIG. 5). No activation of p38 kinase and JNK½ by Compound A-phosphate is detectable in HUVEC. […] To estimate the possible role of inflammatory/NFκB-dependent program in Compound A-phosphatestimulated bioresponses of endothelial cells, the membranes are reprobed with anti-IκB antibodies. IκB levels are not affected by Compound A-phosphate treatment.

With `CCCCCCCCc1ccc(CCC(N)(CO)COP(=O)(O)O)cc1` (centres unmarked) [Compound A-phosphate] the E-Selectin expression (E-Selectin) was “fail to induce”, the “activation of p38 kinase” value (p38 kinase) was “No activation” and the IκB levels (IκB) was “not affected”. For the same molecule, the “tube formation potency at 2 μM versus 0.5 μM” value (HUVEC; 2 μM) was “less potent than at 0.5 μM”, the “effect on VEGF-mediated remodelling” value (HUVEC; 0.5-1 μM, with VEGF) was “does not attenuate” and the “concentration of maximal activity in capillary-like network formation” value (HUVEC; bell-shape dose-dependence, tested 0.1-2 μM, 8 h) was “around 0.5 μM”. For the same molecule, the “number of branching points per microscopic field (induction potency)” value (HUVEC; compared with S1P and VEGF) was “comparable for Compound A-phosphate and S1P”, the “effect on TNF-α-induced tissue factor” value (tissue factor; TNF-α 100 U/ml) was “not TNF-α-induced” and the “effect on VEGF-induced tissue factor” value (tissue factor; VEGF 1.5 nM) was “slightly enhance”. The tissue factor activity (tissue factor; compound alone or in combinations, 0.5-2 μM, 4 hours) was “none of these compounds alone or in combinations may elevate tissue factor activity”, the “activation of JNK½” value (JNK½) was “No activation” and the “time of ERK½ activation returning to baseline” value (ERK½ MAP kinases; 0.5 μM) was no more than 20 min. For the same molecule, the “time of peak of ERK½ phosphorylation/activation” value (ERK½ MAP kinases; 0.5 μM, transient activation) was 10 min and the “ERK½ activation, dose dependence” value (ERK½ MAP kinases; 0.5 versus 2 μM) was “dose-dependent manner, showing stronger activity at 2 μM”.
